Results taken from paper PMC2756481 (Biochemical and biophysical research communications, 2009).
Where two headings read alike, the source gives them in different places.

Key:
[1] = biological target: T1, 64 kDa MMP-2 (Homo sapiens, UniProt P08253); assay: OmniMMP fluorogenic substrate kinetic assay of MMP-2 activity; format: biochemical; settings: for IC50: 15 µM substrate; for IC50 values (range in words): substrate degradation assay, 64 kDa MMP-2
T1 sequence (P08253 110-660): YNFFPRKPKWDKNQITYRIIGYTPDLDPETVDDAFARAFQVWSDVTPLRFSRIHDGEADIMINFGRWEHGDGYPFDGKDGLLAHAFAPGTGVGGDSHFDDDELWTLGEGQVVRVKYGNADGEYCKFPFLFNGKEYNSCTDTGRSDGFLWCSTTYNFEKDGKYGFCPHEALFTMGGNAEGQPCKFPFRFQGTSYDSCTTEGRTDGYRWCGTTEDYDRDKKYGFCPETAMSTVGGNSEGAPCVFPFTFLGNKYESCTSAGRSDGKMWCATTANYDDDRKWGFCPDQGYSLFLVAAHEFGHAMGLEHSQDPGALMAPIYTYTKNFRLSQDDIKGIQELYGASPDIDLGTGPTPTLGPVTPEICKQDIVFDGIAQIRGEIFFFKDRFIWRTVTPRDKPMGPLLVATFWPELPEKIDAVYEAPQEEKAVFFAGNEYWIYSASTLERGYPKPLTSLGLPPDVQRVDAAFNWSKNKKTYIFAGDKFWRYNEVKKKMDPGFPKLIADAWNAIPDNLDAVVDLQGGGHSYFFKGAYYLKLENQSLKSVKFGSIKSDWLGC

[2] = biological target: T1, 64 kDa MMP-2; assay: Gelatinolytic activity of MMP-2 by gelatin zymography; format: biochemical
[3] = system: PARP; settings: in vitro; cited from earlier work
[4] = system: PARP; settings: in animal models; cited from earlier work
[5] = IC50 ± SD, 1 nM ZnSO4, 50 mM Tris pH 7.6, 37 °C
[6] = IC50 ± SD, 10 µM ZnSO4, 50 mM Tris pH 7.6, 10 mM CaCl2, 0.05% Brij-35, 37 °C
[7] = read-out: IC50 ± SD, 10 µM ZnSO4, 50 mM Tris pH 7.6, 10 mM CaCl2, 0.05% Brij-35, 37 °C

`c1cnc2c(c1)ccc1cccnc12` [o-Phenanthroline, o-phenanthroline] gave an IC50 [1, 5] of 116 ± 9 µM.

Compound `CN(C)CC(=O)Nc1ccc2[nH]c(=O)c3ccccc3c2c1` [PJ-34, 2-(dimethylamino)-N-(5,6-dihydro-6-oxophenanthridin-2-yl)acetamide] has an IC50 [2] of 9200 µM, an IC50 [1, 5] of 27 ± 10 µM and an IC50 [1, 6] of 56 ± 14 µM. For the same compound, the “IC50 values (range in words)” value [1] was “high micromolar range”.

For `C[C@H]1c2cccc(O)c2C(=O)C2=C(O)[C@]3(O)C(=O)C(C(N)=O)=C(O)[C@@H](N(C)C)[C@@H]3[C@@H](O)[C@@H]21` [Doxycycline, doxycycline], the IC50 [1, 5] was 93 ± 12 µM and the IC50 [1, 6] was 86 ± 13 µM.

Compound `CN(C)c1ccc(O)c2c1C[C@H]1C[C@H]3[C@H](N(C)C)C(O)=C(C(N)=O)C(=O)[C@@]3(O)C(O)=C1C2=O` [Minocycline, minocycline] has an IC50 [1, 6] of 57 ± 6 µM.

In the case of `NC(=O)c1cccc(N)c1` [3-AB, 3-Aminobenzamide], the “potency for PARP inhibition” value [3] is listed as “micromolar range”, the “potency for PARP inhibition” value [4] is listed as “millimolar range” and the IC50 [1, 5] is listed as 1000 ± 200 µM. For the same compound, the IC50 [1, 6] was 1760 ± 220 µM and the “IC50 values (range in words)” value [1] was “millimolar range”.

In the case of `Nc1cccc2c(=O)[nH]ccc12` [5-AIQ, 5-aminoisoquinolinone], the IC50 [1, 7] is reported as 102 ± 34 µM and the “IC50 values (range in words)” value [1] is reported as “high micromolar range”.

In the case of `Nc1ncnc2c1ncn2[C@@H]1O[C@H](C(=O)N2CCN(CC(=O)Nc3cccc4c3CNC4=O)CC2)[C@@H](O)[C@H]1O` [EB-47, 1-piperazineacetamide-4-[1-(6-amino-9H-purin-9-yl)-1-deoxy-D-ribofuranuron]-N-(2,3-dihydro-1H-isoindol-4-yl)-1-one], the IC50 [1, 7] is reported as over 3000 µM and the “IC50 values (range in words)” value [1] is reported as “millimolar range”.
